From EPA's ToxValDB 9.5 (doi:10.2903/j.efsa.2008.150r)
≈ marks a conversion by molar mass, not a printed value.

Assays:
Anas platyrhynchos = details: for LD50: oral, mortality; for NOEL: reproductive
Rattus norvegicus = details: for LD50: acute, mortality
Apis mellifera = details: acute; duration: 48 hours; oral; unspecified; mortality
Tagia sp. = details: acute; duration: 14 days; mortality
Aphidius rhopalosiphi = test: LR50; higher = less toxic; details: not reported; mortality
Typhlodromus pyri = test: LR50; higher = less toxic; details: not reported; mortality

Row | SMILES | LD50 (Anas platyrhynchos; short-term, feed) [mg/kg-day] | LD50 (Rattus norvegicus; oral) [mg/kg-day] | NOEL (Rattus norvegicus; reproduction developmental, M, reproduction) [mg/kg-day] | LD50 (Anas platyrhynchos; acute, unspecified) [mg/kg-day] | NOEL (Anas platyrhynchos; duration: 6 weeks) [mg/kg-day] | NOEL (Anas platyrhynchos; duration: 20 weeks, body weight) [mg/kg-day] | LD50 (Apis mellifera) [µg/piece] | LC50 (Oncorhynchus mykiss; acute, duration: 96 hours, mortality) [µg/mL] | NOEC (Oncorhynchus mykiss; chronic/long-term, duration: 28 days, growth) [mg/L] | LD50 (Rattus norvegicus) [mg/kg-day] | NOEL (Rattus norvegicus; chronic) [mg/kg-day] | LOAEL (Rattus norvegicus; chronic, duration: 2 years, organ weight) [mg/kg-day] | NOAEL (Rattus norvegicus; reproduction developmental, organ weight) [mg/kg-day] | LC50 (Tagia sp.) [mg/kg] | LR50 (Aphidius rhopalosiphi) [g/ha] | LR50 (Typhlodromus pyri) [g/ha]
1 | CS(=O)(=O)c1ccc(C(=O)O)c(Cl)c1 [Benzoic acid, 2-chloro-4-(methylsulfonyl)-] | > 2010 | > 2000 | 969 | – | – | – | – | – | – | – | – | – | – | – | – | –
2 | CS(=O)(=O)c1ccc(C(=O)C2C(=O)CCCC2=O)c(Cl)c1 [Sulcotrione] | > 1260 | – | – | > 1350 | 17 | < 10.9 | 50 | 227 (≈ 690 µM) | 3.2 | > 5000 | 0.5 | 0.04 | 0.06 | > 1000 | > 450 | > 450
